Source: patent publication US12584098B2, “In-vitro model of the human gut microbiome and uses thereof in the analysis of the impact of xenobiotics” (EUROPEAN MOLECULAR BIOLOGY LABORATORY, priority 2018, dated 2026)
Like-named read-outs stand apart in the source and are kept apart here.

Experiments:
[1] = cited from earlier work
[2] = tested on: gut bacterial strains (hits of the interaction screen); experiment: Depletion-mode assay: supernatant vs total extraction; conditions: 50 μM drug, 48 h, GMM
Experimental: If the drug is only depleted in the supernatant, the drug is likely a bioaccumulated, whereas if the drug is also depleted in the extraction of the total fraction a biodegradation is likely.
(§1) All liquid chromatography methods are run on a Waters Acquity UPLC H-Class instrument with a PDA detector and a quaternary solvent system. All established methods are 5 minutes long, have a flow rate of 0.5 ml/min and run on a CSH C18 column (Waters, Part number 186005297) in reverse mode. The column is heated to 40° C. and samples are kept at 6° C. All methods use 50% acetonitrile (Biosolve, ULC grade) for washing buffer, and 50% methanol (Biosolve, ULC grade) for purging buffer. As organic mobile phase acetonitrile was used. The assay was optimized using only two buffers besides water as hydrophilic mobile phase: 5 mM formic acid (Biosolve, ULC grade) of pH 3.2 and 5 mM ammonium formate (Ammonium hydroxide, ACS grade, Sigma) with pH adjusted to 8.3 using the formic acid buffer.
Bacteria from second passage culture are inoculated with an OD578 of 0.01 in 1 mL GMM containing 50 μM drug of interest in 2 mL eppendorf tubes and incubated for 48 h while shaking. After finishing growth, the cultures were removed from the anaerobic chamber. […]

[3] = tested on: gut bacterial strains; experiment: Testing for anticommensal activity at higher concentrations (validation of side effect-based predictions); format: cell-based
Experimental: Compounds of interest were purchased from independent sources and if possible, dissolved at 5 mM concentration in mGAM. Lower concentrations were used when solubility limit was reached. Solutions were sterile filtered, and three 4-fold serial dilutions were arranged in 96 well plates, aiming at covering a broad range of drug concentrations. Inoculation and growth curve acquisition was performed as described for the MIC determination experiments.

[4] = tested on: 25 gut bacterial strains; experiment: Bacteria-drug interaction screen: drug depletion from supernatant (UV-UPLC); conditions: 50 μM drug, 48 h anaerobic growth
Experimental: as §1
For all drugs, a fixed concentration of 50 µM was used, which in most cases approximates the concentration of one pill (0.02-3 mmol) diluted in the volume of the gut (approx. 2.5 L). One bacteria-free control per plate and drug, but triplicates for each bacteria-drug interaction was screened. […] Growth was monitored with measurements of the optical density at 578 nm using an Eon Microplate Spectrophotometer (BIOTEK) approximately every 2 h for the first 10 h, then approximately every 6 h. […]

[5] = tested on: 25 gut bacterial strains; experiment: Growth effect (OD578) in the bacteria-drug interaction screen; format: cell-based, human gut bacteria; conditions: 50 μM drug, 25 strains
Experimental: (§2) For all drugs, a fixed concentration of 50 µM was used, which in most cases approximates the concentration of one pill (0.02-3 mmol) diluted in the volume of the gut (approx. 2.5 L). One bacteria-free control per plate and drug, but triplicates for each bacteria-drug interaction was screened. The screen was carried out under anaerobic conditions in 96-well plates (NUNCLON Delta Surface 163320, NUNC) with 150 μl GMM as the growth medium sealed with a Breathe-Easy® sealing membrane (Z380059, SIGMA-ALDRICH). Plates containing 100 μl of the medium and 75 μM of the drug were prepared beforehand, stored at −20° C. and used as needed. Frozen plates were introduced into the anaerobic chamber the evening before inoculation. Wells were inoculated with 50 μl of a second passage culture with an end OD578 of 0.01. Growth was monitored with measurements of the optical density at 578 nm using an Eon Microplate Spectrophotometer (BIOTEK) approximately every 2 h for the first 10 h, then approximately every 6 h. After 48 h, plates were removed from the anaerobic chamber and the bacteria spinned down (4000 rpm, 10 min). […] All liquid handling outside of anaerobic chamber was done using a liquid handling robot (FXp, BIOMEK). […] The bacteria-drug interaction screen was conducted with two biological replicates.

[6] = tested on: E. coli IAI1; conditions: 50 μM drug
Experimental: as §2

[7] = tested on: C. saccharolyticum; conditions: 50 μM drug
Experimental: as §2

Q: What does the source list for `CC[C@@H]([C@H](C)O)n1ncn(-c2ccc(N3CCN(c4ccc(OC[C@@H]5CO[C@@](Cn6cncn6)(c6ccc(F)cc6F)C5)cc4)CC3)cc2)c1=O` [posaconazole]?
A: maximum concentration in the duodenum ([1]; 40 mg (57 μmol) delivered to the stomach in acidic solution): 26.3 ± 10.3 µM; maximum concentration in the duodenum ([1]; 40 mg (57 μmol) delivered to the stomach in neutral solution): 13.6 ± 5.8 µM

Q: What does the source list for `CC(C)(O)c1ccccc1CC[C@@H](SCC1(CC(=O)O)CC1)c1cccc(/C=C/c2ccc3ccc(Cl)cc3n2)c1` [montelukast]?
A: predominant mode of depletion [2]: bioaccumulation; depletion mode: bioaccumulation or biodegradation (in words) ([2]; supernatant vs total extraction): bioaccumulated and then partially degraded by several bacterial strains

Q: With `CN(C)C(=N)N=C(N)N` [Metformin] as the molecule, how does the “anticommensal activity at concentrations higher than the 20 μM of the screen” value [3] read?
A: verified

Q: With `O=C1[C@H](CC[C@H](O)c2ccc(F)cc2)[C@@H](c2ccc(O)cc2)N1c1ccc(F)cc1` [ezetimibe] as the molecule, how does the “depletion of drug from the medium by bacterial strains (in words)” value [4] read?
A: interacting only with a few bacterial strains

Q: Which “depletion of drug from the medium by bacterial strains (in words)” value [4] does the source give for `C[C@H](Cn1cnc2c(N)ncnc21)OCP(=O)(O)O` [tenofovir] here?
A: neither being depleted

Q: And the “effect on bacterial growth in the screen” value [5]?
A: nor affecting bacterial growth

Q: What does the source list for `CNCC[C@H](Oc1cccc2ccccc12)c1cccs1` [duloxetine]?
A: effect on growth of E. coli IAI1 [6]: inhibiting growth; effect on growth of C. saccharolyticum [7]: inhibiting growth
